Here are results for three compounds from patent publication US20230255974A1, “USE OF THYROMIMETICS FOR THE TREATMENT OF CANCER” (THE UNIVERSITY OF VERMONT, priority 2020, published 2023).

Data set [1] concerns MDA-MB-453 cells. As to the kind of experiment: Relative cell growth by cell counting, HER2+ breast cancer cells. The format is cell-based. Conditions: MDA-MB-453, 10 nM GC-1, 8 days. Here is the method: A similar study was then performed in MDA-MB-453 cells, human epidermal growth factor positive-HER2+, breast cancer cells.
Data set [2] deals with MCF7. Nature of the data set: Mammosphere growth, Luminal A breast cancer cells. The format is cell-based.
Excerpt: Data are mean+/−SD; * indicates p<0.05 determined by t-test.
In data set [3] the test system is KTC-2. As to the kind of experiment: Xenograft model of anaplastic thyroid tumor. The format is in vivo, SCID female mice. The note with it: KTC-2 subcutaneous xenograft, GC-1 0.3 mg/Kg, Buparlisib 5 mg/Kg, approximately 6 week study. On the procedure:
Doses of Buparlisib tested in xenograft studies range from 5 mg/Kg to 20 mg/Kg.
Drugs were prepared at concentrations suitable for intraperitoneal (i.p.) injection of 5 μL/g body weight. […] Drug stocks were prepared by dissolving sobetirome and Sob-AM2 at 1 mg/mL in dimethyl sulfoxide (DMSO). […] Vehicles were prepared with 20% DMSO in saline.”
Buparlisib was used as a 5 mg/kg buparlisib treatment (recommended by Novartis). Buparlisib suspension was prepared in 0.5% methyl cellulose and 0.5% Tween20.
Tumors were established by subcutaneous injection of 5×10^6 tumor cells in 100 μL of phosphate-buffered saline into the flank region into SCID female mice. Thyroid cancer occurs in females ˜4× more often than in males. As funding is available; both males and females will be tested.
The study was approximately a 6 week study. Tumor mass was measured, and tumors and tissues were saved for IHC and RNAseq.

Data set [4] has as its system SW1736, 8505C, OCUT2, and KTC-2 cells. Nature of the data set: Cell migration by scratch (wound healing) assay, inhibitors with or without GC-1. The format is cell-based, human. The note with it: GC-1 10^−8M or inhibitor alone. On the procedure:
Migration Assay. Cell migration was determined by wound healing assay. Cells were plated and allowed to grow to 100% confluency. Four hours prior to scratching, cells were treated with […] Mitomycin C. A scratch was performed with a P1000 pipette tip and debris was washed away with PBS. […] Images were obtained at 0, 16, 24, 48, and 72 hours or until 100% wound closure, depending on the cell type. The wound closure was measured using the ImageJ macro “Wound Healing Tool” (https://github.com/MontpellierRessourcesImagerie/imagej_macros_and_scripts/wiki/Wound-Healing-Tool). Percent closure was calculated relative to the area of the initial scratch.

In data set [5] the test system is SW1736 cells (SW-EV, SW-TRβ). As to the kind of experiment: Apoptosis assay (PARP1 and caspase 3 cleavage, immunoblot). The data set is classed as cell-based, human. Conditions: SW-TRβ. From the text:
Immunoblot Analysis. […] Proteins were resolved by polyacrylamide gel electrophoresis on 10% sodium dodecyl sulfate gels EC60752 (Life Technologies) and immobilized onto nitrocellulose membranes (GE Healthcare) by electroblot (Bio-Rad Laboratories). Specific proteins were detected by immunoblotting with the indicated antibodies (Table 4); immunoreactive proteins were detected by enhanced chemiluminescence (Thermo Scientific) on a ChemiDoc XRS+ (Bio-Rad Laboratories).
Apoptosis Assay. Cells were plated at a density of 50,000 cells/well and treated with vehicle (1 N NaOH) or 10^−8 M T3. After 5 days the cells were lysed for analysis by immunoblot. Poly (ADP-ribose) polymerase 1 (PARP1) and Caspase 3 cleavage were assessed to measure apoptotic signaling.
Immunoblot Analysis. […] Proteins were resolved by polyacrylamide gel electrophoresis on 10% sodium dodecyl sulfate gels EC60752 (Thermo Fisher Scientific) and immobilized onto nitrocellulose membranes (GE Healthcare, Chicago, Ill., USA) by electroblot (Bio-Rad Laboratories, Hercules, Calif., USA). Specific proteins were detected by immunoblotting with the indicated antibodies (Table 4); immunoreactive proteins were detected by enhanced chemiluminescence (Thermo Scientific) on a ChemiDoc XRS+ (Bio-Rad Laboratories).

The subject of data set [6] is SW1736 cells (SW-EV, SW-TRβ). Conditions: SW-TRβ1, GC-1 10^−8M.
Description: (§1) Tumorsphere Assay. Cancer stem cell tumorspheres formed from ATC cells (thyrospheres) were used to assess self-renewal and sphere-forming efficiency. For generating thyrospheres, adherent monolayer cells were dissociated with Trypsin-EDTA, and single cells were moved to round-bottom ultra-low attachment 24-well plates at a density of 1000 cells/well (Corning). […] Where indicated, adherent cells were treated with 0.5 μM Buparlisib, 0.5 μM Alpelisib, 1 nM Palbociclib, 5 μM Sorafenib, or vehicle for 72 hours prior to thyrosphere-forming assay. […] Thyrospheres grew for seven days and were then counted with an inverted microscope.
For data set [7], the system named is MDA-MB-468 cells (EV, TRβ). Conditions: triple negative breast cancer cells with low TRβ expression. On the procedure: Triple negative breast cancer were examined next. […] TNBC cancers and other advanced solid tumors have lower endogenous levels of expression of TRβ. […] Cell migration was measured by scratch assay (FIG. 28). […] Data are mean+/−SD; *indicates p<0.05 determined by t-test.

Data set [8] relates to SW1736 cells (SW-EV, SW-TRβ). The data set is classed as cell-based, human. Conditions: for ATC cell death: GC-1 10^−8 M; for reduction in cell growth (AUC of growth curve): GC-1 10^−8M, 4 days.
The subject of data set [9] is SW1736, 8505C, OCUT2, and KTC-2 cells. Conditions: GC-1 concentrations higher than 10^-8M.
The test system is the same in data set [10]. As to the kind of experiment: Thyrosphere outgrowth, unmodified ATC cell lines. The format is cell-based, human. Conditions: inhibitor three days before plating, or 10 nM GC-1 for 7 days.
Description: as §1

Molecules are shown by their SMILES. Read-outs that look alike come from different tables or passages of the source.

Regarding `Cc1nc(NC(=O)N2CCC[C@H]2C(N)=O)sc1-c1ccnc(C(C)(C)C(F)(F)F)c1` [Alpelisib, (2S)-1-N-[4-methyl-5-[2-(1,1,1-trifluoro-2-methylpropan-2-yl)pyridin-4-yl]-1,3-thiazol-2-yl]pyrrolidine-1,2-dicarboxamide], the “cell growth, inhibitor in the presence of GC-1” value in [1] is “enhanced the effect of Alpelisib in reducing cell growth”. Besides, the “effect of inhibitor in the presence of GC-1” value in data set [2] (MCF7, 10 nM GC-1, 5 days) is given as “enhanced the effect”.
Turning to `Cc1cc(OCC(=O)O)cc(C)c1Cc1ccc(O)c(C(C)C)c1` [GC-1, 2-[4-[(4-hydroxy-3-propan-2-ylphenyl)methyl]-3,5-dimethylphenoxy]acetic acid], the metastases result in data set [3] was “no visually detectable metastases”. The tumor vascularization entry in data set [3] was “minimal vascularization”. In addition, the “wound closure, agent alone” value in [4] was “able to prevent wound closure of all tumor cell lines with similar success as each inhibitor alone”. The “cleaved PARP and cleaved caspase 3” value in data set [5] (GC-1, 5 days) is “significantly increased the presence of cleaved PARP and cleaved caspase 3”. The “apoptosis (cleaved PARP and caspase)” value in [5] (five days) is on record as “induces apoptosis”. Further, the mammosphere formation entry in data set [2] (MCF7, 10 nM GC-1 alone) was “could reduce mammosphere formation”. Moreover, the “reduction in thyrosphere formation” value in data set [6] is recorded as “greater than 80%”. Further, in data set [7], the cell migration result is recorded as “able to slow migration”. The ATC cell death result in [8] (SW1736 with endogenous TRβ (EV)) is “induces ATC cell death”; in data set [8] (SW-TRβ (lentiviral transduction)), “amplified with higher levels of TRβ”. The “reduction in cell growth (AUC of growth curve)” value in data set [8] (SW-EV) came out at 50%; in data set [8] (SW-TRβ), 75%. Also, the cell toxicity entry in data set [9] was “cause cell toxicity”.
With `CNC(=O)c1cc(Oc2ccc(NC(=O)Nc3ccc(Cl)c(C(F)(F)F)c3)cc2)ccn1` [Sorafenib, 4-[4-[[4-chloro-3-(trifluoromethyl)phenyl]carbamoylamino]phenoxy]-N-methylpyridine-2-carboxamide], the “thyrosphere formation/outgrowth, agent alone” value in [10] is recorded as “most effective overall”.
